From ChEMBL document CHEMBL5120845, “Design and synthesis of novel macrolones bridged with linkers from 11,12-positions of macrolides” (Bioorg Med Chem Lett, 2022)
Values after ≈ are worked out from the molar mass of the structure shown.

How the values were obtained:
Type in all cases: functional
Haemophilus influenzae = test: Antibacterial activity against Haemophilus influenzae ATCC 49247 by microbroth dilution method
Streptococcus pneumoniae [1] = test: Antibacterial activity against Streptococcus pneumoniae PU09 by microbroth dilution method
Streptococcus pneumoniae [2] = test: Antibacterial activity against Streptococcus pneumoniae ATCC 49619 by microbroth dilution method
Streptococcus pneumoniae [3] = test: Antibacterial activity against Streptococcus pneumoniae 07P390 by microbroth dilution method
Staphylococcus aureus [4] = test: Antibacterial activity against Staphylococcus aureus PU32 by microbroth dilution method
Staphylococcus aureus [5] = test: Antibacterial activity against Staphylococcus aureus 15B196 by microbroth dilution method
Streptococcus pyogenes = test: Antibacterial activity against Streptococcus pyogenes 12-206 by microbroth dilution method

| SMILES | MIC (Haemophilus influenzae) [µg/mL] | MIC (Streptococcus pneumoniae [1]) [µg/mL] | MIC (Streptococcus pneumoniae [2]) [µg/mL] | MIC (Streptococcus pneumoniae [3]) [µg/mL] | MIC (Staphylococcus aureus [4]) [µg/mL] | MIC (Staphylococcus aureus [5]) [µg/mL] | MIC (Streptococcus pyogenes) [µg/mL] |
| --- | --- | --- | --- | --- | --- | --- | --- |
| CC[C@H]1OC(=O)[C@H](C)C(=O)[C@H](C)[C@@H](O[C@@H]2O[C@H](C)C[C@H](N(C)C)[C@H]2O)[C@](C)(OC)C[C@@H](C)C(=O)[C@H](C)[C@H]2N(CCCC#Cc3ccc4c(=O)c(C(=O)O)cn(C5CC5)c4c3)C(=O)O[C@]12C | 32 (≈ 35.3 µM) | 1 (≈ 1.1 µM) | 0.03 (≈ 0.0331 µM) | 2 (≈ 2.21 µM) | 4 (≈ 4.41 µM) | 256 (≈ 283 µM) | 2 (≈ 2.21 µM) |
| CC[C@H]1OC(=O)[C@H](C)C(=O)[C@H](C)[C@@H](O[C@@H]2O[C@H](C)C[C@H](N(C)C)[C@H]2O)[C@](C)(OC)C[C@@H](C)C(=O)[C@H](C)[C@H]2N(CCN3CCN(c4cc5c(cc4F)c(=O)c(C(=O)O)cn5C4CC4)CC3)C(=O)O[C@]12C | 32 (≈ 33 µM) | 2 (≈ 2.06 µM) | 0.03 (≈ 0.0309 µM) | 2 (≈ 2.06 µM) | 4 (≈ 4.12 µM) | 256 (≈ 264 µM) | 1 (≈ 1.03 µM) |
| CC[C@H]1OC(=O)[C@H](C)C(=O)[C@H](C)[C@@H](O[C@@H]2O[C@H](C)C[C@H](N(C)C)[C@H]2O)[C@](C)(OC)C[C@@H](C)C(=O)[C@H](C)[C@H]2N(CCCCCC#Cc3ccc4c(c3)c(=O)c(C(N)=O)cn4C3CC3)C(=O)O[C@]12C | 64 (≈ 68.6 µM) | 1 (≈ 1.07 µM) | 0.016 (≈ 0.0171 µM) | 4 (≈ 4.29 µM) | 8 (≈ 8.57 µM) | 128 (≈ 137 µM) | 2 (≈ 2.14 µM) |
| CC[C@H]1OC(=O)[C@H](C)C(=O)[C@H](C)[C@@H](O[C@@H]2O[C@H](C)C[C@H](N(C)C)[C@H]2O)[C@](C)(OC)C[C@@H](C)C(=O)[C@H](C)[C@H]2N(CCCCC#Cc3ccc4c(=O)c(C(=O)O)cn(C5CC5)c4c3)C(=O)O[C@]12C | 32 (≈ 34.8 µM) | 2 (≈ 2.17 µM) | 0.016 (≈ 0.0174 µM) | 8 (≈ 8.69 µM) | 2 (≈ 2.17 µM) | 256 (≈ 278 µM) | 2 (≈ 2.17 µM) |
| CC[C@H]1OC(=O)[C@H](C)C(=O)[C@H](C)[C@@H](O[C@@H]2O[C@H](C)C[C@H](N(C)C)[C@H]2O)[C@](C)(OC)C[C@@H](C)C(=O)[C@H](C)[C@H]2N(CCC#Cc3ccc4c(c3)c(=O)c(C(=O)O)cn4C3CC3)C(=O)O[C@]12C | 32 (≈ 35.9 µM) | 1 (≈ 1.12 µM) | 0.06 (≈ 0.0673 µM) | 256 (≈ 287 µM) | 2 (≈ 2.24 µM) | 512 (≈ 574 µM) | 4 (≈ 4.48 µM) |
| CC[C@H]1OC(=O)[C@H](C)C(=O)[C@H](C)[C@@H](O[C@@H]2O[C@H](C)C[C@H](N(C)C)[C@H]2O)[C@](C)(OC)C[C@@H](C)C(=O)[C@H](C)[C@H]2N(CCCC#Cc3ccc4c(=O)c(C(N)=O)cn(C5CC5)c4c3)C(=O)O[C@]12C | 128 (≈ 141 µM) | 2 (≈ 2.21 µM) | 0.03 (≈ 0.0331 µM) | 128 (≈ 141 µM) | 4 (≈ 4.42 µM) | 512 (≈ 566 µM) | 4 (≈ 4.42 µM) |
| CC[C@H]1OC(=O)[C@H](C)C(=O)[C@H](C)[C@@H](O[C@@H]2O[C@H](C)C[C@H](N(C)C)[C@H]2O)[C@](C)(OC)C[C@@H](C)C(=O)[C@H](C)[C@H]2N(CCC#Cc3ccc4c(=O)c(C(N)=O)cn(C5CC5)c4c3)C(=O)O[C@]12C | 128 (≈ 144 µM) | 0.12 (≈ 0.135 µM) | 0.06 (≈ 0.0673 µM) | 128 (≈ 144 µM) | 1 (≈ 1.12 µM) | 512 (≈ 575 µM) | 32 (≈ 35.9 µM) |
| CC[C@H]1OC(=O)[C@H](C)C(=O)[C@H](C)[C@@H](O[C@@H]2O[C@H](C)C[C@H](N(C)C)[C@H]2O)[C@](C)(OC)C[C@@H](C)C(=O)[C@H](C)[C@H]2N(CCCCc3ccc4c(c3)c(=O)c(C(=O)O)cn4C3CC3)C(=O)O[C@]12C | 32 (≈ 35.7 µM) | 4 (≈ 4.46 µM) | 0.06 (≈ 0.067 µM) | 64 (≈ 71.4 µM) | 1 (≈ 1.12 µM) | 512 (≈ 571 µM) | 2 (≈ 2.23 µM) |
| CC[C@H]1OC(=O)[C@H](C)C(=O)[C@H](C)[C@@H](O[C@@H]2O[C@H](C)C[C@H](N(C)C)[C@H]2O)[C@](C)(OC)C[C@@H](C)C(=O)[C@H](C)[C@H]2N(CCCCC#Cc3ccc4c(c3)c(=O)c(C(=O)O)cn4C3CC3)C(=O)O[C@]12C | 32 (≈ 34.8 µM) | 1 (≈ 1.09 µM) | 0.016 (≈ 0.0174 µM) | 128 (≈ 139 µM) | 2 (≈ 2.17 µM) | 256 (≈ 278 µM) | 4 (≈ 4.35 µM) |

Continued by falling MIC (Haemophilus influenzae), values first:

| MIC (Haemophilus influenzae) [µg/mL] | MIC (Streptococcus pneumoniae [1]) [µg/mL] | MIC (Streptococcus pneumoniae [2]) [µg/mL] | MIC (Streptococcus pneumoniae [3]) [µg/mL] | MIC (Staphylococcus aureus [4]) [µg/mL] | MIC (Staphylococcus aureus [5]) [µg/mL] | MIC (Streptococcus pyogenes) [µg/mL] | SMILES |
| --- | --- | --- | --- | --- | --- | --- | --- |
| 32 (≈ 35.8 µM) | 0.25 (≈ 0.279 µM) | 0.03 (≈ 0.0335 µM) | 32 (≈ 35.8 µM) | 1 (≈ 1.12 µM) | 512 (≈ 572 µM) | 4 (≈ 4.47 µM) | CC[C@H]1OC(=O)[C@H](C)C(=O)[C@H](C)[C@@H](O[C@@H]2O[C@H](C)C[C@H](N(C)C)[C@H]2O)[C@](C)(OC)C[C@@H](C)C(=O)[C@H](C)[C@H]2N(CCCCc3ccc4c(=O)c(C(N)=O)cn(C5CC5)c4c3)C(=O)O[C@]12C |
| 32 (≈ 34.3 µM) | 1 (≈ 1.07 µM) | ≤ 0.008 | 32 (≈ 34.3 µM) | 8 (≈ 8.56 µM) | 128 (≈ 137 µM) | 2 (≈ 2.14 µM) | CC[C@H]1OC(=O)[C@H](C)C(=O)[C@H](C)[C@@H](O[C@@H]2O[C@H](C)C[C@H](N(C)C)[C@H]2O)[C@](C)(OC)C[C@@H](C)C(=O)[C@H](C)[C@H]2N(CCCCCC#Cc3ccc4c(c3)c(=O)c(C(=O)O)cn4C3CC3)C(=O)O[C@]12C |
| 16 (≈ 18 µM) | 1 (≈ 1.12 µM) | ≤ 0.008 | 8 (≈ 8.98 µM) | 1 (≈ 1.12 µM) | 32 (≈ 35.9 µM) | 1 (≈ 1.12 µM) | CC[C@H]1OC(=O)[C@H](C)C(=O)[C@H](C)[C@@H](O[C@@H]2O[C@H](C)C[C@H](N(C)C)[C@H]2O)[C@](C)(OC)C[C@@H](C)C(=O)[C@H](C)[C@H]2N(CCC#Cc3ccc4c(c3)c(=O)c(C(N)=O)cn4C3CC3)C(=O)O[C@]12C |
| 16 (≈ 17.1 µM) | 1 (≈ 1.07 µM) | ≤ 0.008 | 16 (≈ 17.1 µM) | 4 (≈ 4.28 µM) | 128 (≈ 137 µM) | 2 (≈ 2.14 µM) | CC[C@H]1OC(=O)[C@H](C)C(=O)[C@H](C)[C@@H](O[C@@H]2O[C@H](C)C[C@H](N(C)C)[C@H]2O)[C@](C)(OC)C[C@@H](C)C(=O)[C@H](C)[C@H]2N(CCCCCC#Cc3ccc4c(=O)c(C(=O)O)cn(C5CC5)c4c3)C(=O)O[C@]12C |
| 16 (≈ 16.9 µM) | 1 (≈ 1.05 µM) | ≤ 0.008 | 8 (≈ 8.44 µM) | 4 (≈ 4.22 µM) | 32 (≈ 33.7 µM) | 1 (≈ 1.05 µM) | CC[C@H]1OC(=O)[C@H](C)C(=O)[C@H](C)[C@@H](O[C@@H]2O[C@H](C)C[C@H](N(C)C)[C@H]2O)[C@](C)(OC)C[C@@H](C)C(=O)[C@H](C)[C@H]2N(CCCCCCC#Cc3ccc4c(=O)c(C(=O)O)cn(C5CC5)c4c3)C(=O)O[C@]12C |
| 8 (≈ 8.95 µM) | 1 (≈ 1.12 µM) | ≤ 0.008 | 32 (≈ 35.8 µM) | 0.5 (≈ 0.559 µM) | 256 (≈ 286 µM) | 2 (≈ 2.24 µM) | CC[C@H]1OC(=O)[C@H](C)C(=O)[C@H](C)[C@@H](O[C@@H]2O[C@H](C)C[C@H](N(C)C)[C@H]2O)[C@](C)(OC)C[C@@H](C)C(=O)[C@H](C)[C@H]2N(CC/C=C\c3ccc4c(c3)c(=O)c(C(=O)O)cn4C3CC3)C(=O)O[C@]12C |
| 8 (≈ 8.83 µM) | 1 (≈ 1.1 µM) | 0.03 (≈ 0.0331 µM) | 128 (≈ 141 µM) | 4 (≈ 4.41 µM) | 256 (≈ 283 µM) | 2 (≈ 2.21 µM) | CC[C@H]1OC(=O)[C@H](C)C(=O)[C@H](C)[C@@H](O[C@@H]2O[C@H](C)C[C@H](N(C)C)[C@H]2O)[C@](C)(OC)C[C@@H](C)C(=O)[C@H](C)[C@H]2N(CCCC#Cc3ccc4c(c3)c(=O)c(C(=O)O)cn4C3CC3)C(=O)O[C@]12C |
| 4 (≈ 4.48 µM) | 0.5 (≈ 0.561 µM) | 0.016 (≈ 0.0179 µM) | 2 (≈ 2.24 µM) | 0.25 (≈ 0.28 µM) | 16 (≈ 17.9 µM) | 1 (≈ 1.12 µM) | CC[C@H]1OC(=O)[C@H](C)C(=O)[C@H](C)[C@@H](O[C@@H]2O[C@H](C)C[C@H](N(C)C)[C@H]2O)[C@](C)(OC)C[C@@H](C)C(=O)[C@H](C)[C@H]2N(CCC#Cc3ccc4c(=O)c(C(=O)O)cn(C5CC5)c4c3)C(=O)O[C@]12C |
| 4 (≈ 4.22 µM) | 1 (≈ 1.05 µM) | ≤ 0.008 | 16 (≈ 16.9 µM) | 4 (≈ 4.22 µM) | 128 (≈ 135 µM) | 1 (≈ 1.05 µM) | CC[C@H]1OC(=O)[C@H](C)C(=O)[C@H](C)[C@@H](O[C@@H]2O[C@H](C)C[C@H](N(C)C)[C@H]2O)[C@](C)(OC)C[C@@H](C)C(=O)[C@H](C)[C@H]2N(CCCCCCC#Cc3ccc4c(c3)c(=O)c(C(=O)O)cn4C3CC3)C(=O)O[C@]12C |
